biological target: T1, p101/p110γ protein (PI3Kγ) (Homo sapiens, UniProt P48736); assay: PI3Kγ In Vitro Kinase Assay; assay type: biochemical; settings: purified recombinant p101/p110γ with G protein β1/γ2 subunits; 20 μM ATP, 25 μM PIP2; 20 minutes at room temperature; radioactive PIP3 readout
T1 construct: HA; made in house; host or cells: Spodoptera frugiperda (Sf9) cells, baculovirus coinfection
Method in brief: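 Baculovirus/Sf9-expressed p101/p110γ (~2.7 nM) with G protein β1/γ2, 20 μM ATP plus [γ-32P]ATP, PIP2/PE micelles (25 μM PIP2, 300 μM PE, 10 mM MgCl2) in HEPES buffer. Reaction 20 min at room temperature, stopped with H3PO4; radiolabelled PIP3 counted on filters to derive IC50 (μM).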

T1 sequence (P48736 whole entry, species assumed): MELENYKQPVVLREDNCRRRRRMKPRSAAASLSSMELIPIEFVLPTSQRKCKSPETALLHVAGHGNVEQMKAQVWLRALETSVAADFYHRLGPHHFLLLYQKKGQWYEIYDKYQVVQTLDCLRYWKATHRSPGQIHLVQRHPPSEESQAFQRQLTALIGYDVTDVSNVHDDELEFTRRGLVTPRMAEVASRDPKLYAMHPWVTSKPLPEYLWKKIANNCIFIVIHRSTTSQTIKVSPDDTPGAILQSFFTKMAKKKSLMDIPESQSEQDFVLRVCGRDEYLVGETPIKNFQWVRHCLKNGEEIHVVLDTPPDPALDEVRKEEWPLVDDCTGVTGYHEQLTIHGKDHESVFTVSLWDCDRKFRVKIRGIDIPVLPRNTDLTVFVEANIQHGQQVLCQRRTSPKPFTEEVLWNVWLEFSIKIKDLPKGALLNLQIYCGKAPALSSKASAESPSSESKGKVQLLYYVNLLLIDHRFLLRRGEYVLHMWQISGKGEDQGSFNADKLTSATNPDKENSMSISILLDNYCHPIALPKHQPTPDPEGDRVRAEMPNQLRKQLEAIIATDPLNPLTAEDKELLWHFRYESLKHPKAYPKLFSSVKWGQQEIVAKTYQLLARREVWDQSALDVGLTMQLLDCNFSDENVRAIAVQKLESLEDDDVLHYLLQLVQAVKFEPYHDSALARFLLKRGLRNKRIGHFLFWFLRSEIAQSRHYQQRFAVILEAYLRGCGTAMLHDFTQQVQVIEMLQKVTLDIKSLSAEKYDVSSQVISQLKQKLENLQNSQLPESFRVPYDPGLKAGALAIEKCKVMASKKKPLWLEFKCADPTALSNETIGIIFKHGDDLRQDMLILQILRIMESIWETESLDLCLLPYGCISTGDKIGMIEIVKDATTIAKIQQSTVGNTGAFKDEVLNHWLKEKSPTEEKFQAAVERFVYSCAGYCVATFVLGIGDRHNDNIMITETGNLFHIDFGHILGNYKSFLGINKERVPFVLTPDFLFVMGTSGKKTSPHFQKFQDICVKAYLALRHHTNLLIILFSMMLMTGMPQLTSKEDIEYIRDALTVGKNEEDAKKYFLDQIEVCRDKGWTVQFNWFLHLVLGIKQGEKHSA
T1 sequence (Q8WYR1 whole entry partner, species assumed): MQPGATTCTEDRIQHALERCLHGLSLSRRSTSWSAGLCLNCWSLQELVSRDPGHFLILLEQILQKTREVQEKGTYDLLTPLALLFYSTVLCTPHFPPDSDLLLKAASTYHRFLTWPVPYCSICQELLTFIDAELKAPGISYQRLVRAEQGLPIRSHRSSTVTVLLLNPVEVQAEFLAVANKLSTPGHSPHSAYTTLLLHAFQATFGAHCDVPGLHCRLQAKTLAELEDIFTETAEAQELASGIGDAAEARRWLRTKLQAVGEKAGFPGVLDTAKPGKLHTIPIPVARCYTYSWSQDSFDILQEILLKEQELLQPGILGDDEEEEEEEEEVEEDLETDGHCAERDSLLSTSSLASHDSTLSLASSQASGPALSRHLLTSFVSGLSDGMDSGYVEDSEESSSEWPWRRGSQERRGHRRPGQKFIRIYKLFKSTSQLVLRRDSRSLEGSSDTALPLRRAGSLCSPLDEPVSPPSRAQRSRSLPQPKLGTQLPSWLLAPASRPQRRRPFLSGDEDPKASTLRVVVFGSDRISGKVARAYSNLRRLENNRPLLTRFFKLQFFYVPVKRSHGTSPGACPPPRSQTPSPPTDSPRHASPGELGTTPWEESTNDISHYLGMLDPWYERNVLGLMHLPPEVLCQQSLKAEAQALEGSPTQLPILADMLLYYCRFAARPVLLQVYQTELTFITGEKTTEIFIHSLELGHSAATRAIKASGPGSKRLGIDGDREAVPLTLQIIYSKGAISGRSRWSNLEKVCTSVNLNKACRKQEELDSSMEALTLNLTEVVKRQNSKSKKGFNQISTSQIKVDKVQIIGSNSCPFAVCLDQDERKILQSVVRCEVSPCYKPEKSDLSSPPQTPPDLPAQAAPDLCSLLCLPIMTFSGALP

SMILES	IC50
O=C1NC(=S)SC1=Cc1ccc2c(c1)N(C(=O)Nc1ccccc1)CCO2 [Example 58, 6-(4-Oxo-2-thioxo-thiazolidin-5-ylidenemethyl)-2,3-dihydro-1,4-benzoxazine-4-carboxylic acid phenylamide]	0.032 µM
COc1cccc(NC(=O)N2CCOc3ccc(C=C4SC(=S)NC4=O)cc32)c1 [Example 59, 6-(4-Oxo-2-thioxo-thiazolidin-5-ylidenemethyl)-2,3-dihydro-1,4-benzoxazine-4-carboxylic acid (3-methoxy-phenyl)-amide]	0.125 µM
O=C1NC(=S)SC1=Cc1ccc2c(c1)N(C(=O)c1ccc3nonc3c1)CCO2 [Example 61, 5-[4-(Benzofurazan-5-carbonyl)-3,4-dihydro-2H-1,4-benzoxazin-6-ylmethylene]-2-thioxo-thiazolidin-4-one]	0.56 µM
CCCCCCCCNC(=O)N1CCOc2ccc(C=C3SC(=S)NC3=O)cc21 [Example 62, 6-(4-Oxo-2-thioxo-thiazolidin-5-ylidenemethyl)-2,3-dihydro-1,4-benzoxazine-4-carboxylic acid octylamide]	4 µM
O=C1NC(=S)SC1=Cc1ccc2c(c1)N(C(=O)c1cc(Cl)cc(Cl)c1)CCO2 [Example 63, 5-[4-(3,5-Dichloro-benzoyl)-3,4-dihydro-2H-1,4-benzoxazin-6-ylmethylene]-2-thioxo-thiazolidin-4-one]	0.145 µM
O=C1NC(=S)SC1=Cc1ccc2c(c1)N(C(=O)NCCc1cccs1)CCO2 [Example 64, 6-(4-Oxo-2-thioxo-thiazolidin-5-ylidenemethyl)-2,3-!dihydro-1,4-benzoxazine-4-carboxylic acid (2-thiophen-2-yl-ethyl)-amide]	4 µM
O=C1NC(=S)SC1=Cc1ccc2c(c1)N(C(=O)NCCc1ccccc1)CCO2 [Example 65, 6-(4-Oxo-2-thioxo-thiazolidin-5-ylidenemethyl)-2,3-dihydro-1,4-benzoxazine-4-carboxylic acid phenethyl-amide]	0.017 µM
O=C1NC(=S)SC1=Cc1ccc2c(c1)N(C(=O)Nc1ccc(Oc3ccccc3)cc1)CCO2 [Example 66, 6-(4-Oxo-2-thioxo-thiazolidin-5-ylidenemethyl)-2,3-dihydro-1,4-benzoxazine-4-carboxylic acid (4-phenoxy-phenyl)-amide]	0.08 µM
COc1cc(NC(=O)N2CCOc3ccc(C=C4SC(=S)NC4=O)cc32)cc(OC)c1 [Example 67, 6-(4-Oxo-2-thioxo-thiazolidin-5-ylidenemethyl)-2,3-dihydro-1,4-benzoxazine-4-carboxylic acid (3,5-dimethoxy-phenyl)-amide]	0.039 µM
O=C1NC(=S)SC1=Cc1ccc2c(c1)N(C(=O)NC1CCCC1)CCO2 [Example 68, 6-(4-Oxo-2-thioxo-thiazolidin-5-ylidenemethyl)-2,3-dihydro-1,4-benzoxazine-4-carboxylic acid cyclopentylamide]	0.008 µM
O=C1NC(=S)SC1=Cc1ccc2c(c1)N(C(=O)Oc1cccc3ccccc13)CCO2 [Example 69, 6-(4-Oxo-2-thioxo-thiazolidin-5-ylidenemethyl)-2,3-dihydro-1,4-benzoxazine-4-carboxylic acid naphthalen-1-yl ester]	0.006 µM
O=C1NC(=S)SC1=Cc1ccc2c(c1)N(C(=O)CCc1ccccc1)CCO2 [Example 70, 5-[4-(3-Phenyl-propionyl)-3,4-dihydro-2H-1,4-benzoxazin-6-ylmethylene]-2-thioxo-thiazolidin-4-one]	0.031 µM
O=C1NC(=S)SC1=Cc1ccc2c(c1)N(C(=O)c1ccc3c(c1)OCO3)CCO2 [Example 71, 5-[4-(1,3-Benzodioxole-5-carbonyl)-3,4-dihydro-2H-1,4-benzoxazin-6-ylmethylene]-2-thioxo-thiazolidin-4-one]	0.935 µM
CS(=O)(=O)c1ccc(C(=O)N2CCOc3ccc(C=C4SC(=S)NC4=O)cc32)cc1 [Example 72]	0.174 µM
COc1cc(CC(=O)N2CCOc3ccc(C=C4SC(=S)NC4=O)cc32)cc(OC)c1 [Example 73]	0.115 µM
CN1CCN(Cc2ccc(C(=O)N3CCOc4ccc(C=C5SC(=S)NC5=O)cc43)cc2)CC1 [Example 74]	0.115 µM
COc1ccc(NC(=O)N2CCOc3ccc(C=C4SC(=S)NC4=O)cc32)cc1OC [Example 75, 6-(4-Oxo-2-thioxo-thiazolidin-5-ylidenemethyl)-2,3-dihydro-benzo[14]oxazine-4-carboxylic acid (3,4-dimethoxy-phenyl)-aniide]	0.014 µM
O=C1NC(=S)SC1=Cc1ccc2c(c1)N(C(=O)Nc1cc(Cl)cc(Cl)c1)CCO2 [Example 76, 6-(4-Oxo-2-thioxo-thiazolidin-5-ylidenemethyl)-2,3-dihydro-benzo[14]oxazine-4-carboxylic acid (3,5-dichloro-phenyl)-amide]	0.033 µM
O=C1NC(=S)SC1=Cc1ccc2c(c1)N(C(=O)Nc1ccc(Cl)cc1)CCO2 [Example 77, 6-(4-Oxo-2-thioxo-thiazolidin-5-ylidenemethyl)-2,3-dihydro-benzo[1,4]oxazine-4-carboxylic acid (4-chloro-phenyl)-amide]	0.002 µM

SMILES	IC50
O=C1NC(=S)SC1=Cc1ccc2c(c1)N(C(=O)Nc1ccc(Cl)c(Cl)c1)CCO2 [Example 78, 6-(4-Oxo-2-thioxo-thiazolidin-5-ylidenemethyl)-2,3-dihydro-benzo[1,4]oxazine-4-carboxylic acid (3,4-dichloro-phenyl)-amide]	0.005 µM
Cc1cc(C)cc(NC(=O)N2CCOc3ccc(C=C4SC(=S)NC4=O)cc32)c1 [Example 79, 6-(4-Oxo-2-thioxo-thiazolidin-5-ylidenemethyl)-2,3-dihydro-benzo[14]oxazine-4-carboxylic acid (3,5-dimethyl-phenyl)-amide]	0.009 µM
O=C1NC(=S)SC1=Cc1ccc2c(c1)N(C(=O)Nc1cccc(Cl)c1)CCO2 [Example 80, 6-(4-Oxo-2-thioxo-thiazolidin-5-ylidenemethyl)-2,3-dihydro-benzo[1,4]oxazine-4-carboxylic acid (3-chloro-phenyl)-amide]	0.002 µM
CC(C)(C)c1cc(C(=O)N2CCOc3ccc(C=C4SC(=S)NC4=O)cc32)cc(C(C)(C)C)c1 [Example 81, 5-[4-(3,5-Di-tert-butyl-benzoyl)-3,4-dihydro-2H-benzo[1,4]oxazin-6-ethylene]-2-thioxo-thiazolidin-4-one]	3.76 µM
O=C1NC(=S)SC1=Cc1ccc2c(c1)N(C(=O)CCCc1ccccc1)CCO2 [Example 82, 5-[4-(4-Phenyl-butryl)-3,4-dihydro-2H-benzo[1,4]oxazin-6-ethylene]-2-thioxo-thiazolidin-4-one]	0.001 µM
O=C1NC(=S)SC1=Cc1ccc2c(c1)N(C(=O)C1CCCCCC1)CCO2 [Example 83, 5-[4-Cycloheptanecarbonyl-3,4-dihydro-2H-benzo[1,4]oxazin-6-ethylene]-2-thioxo-thiazolidin-4-one]	0.027 µM
CC(C(=O)N1CCOc2ccc(C=C3SC(=S)NC3=O)cc21)c1ccccc1 (stereo not shown) [Example 84, 5-[4-(2-Phenyl-propionyl)-3,4-dihydro-2H-benzo[1,4]oxazin-6-ethylene]-2-thioxo-thiazolidin-4-one]	0.084 µM
CC1CCCC(C(=O)N2CCOc3ccc(C=C4SC(=S)NC4=O)cc32)C1 (stereo not shown) [Example 85, 5-[4-(3-Methyl-cyclohexanecarbonyl)-3,4-dihydro-2H-benzo[1,4]oxazin-6-ethylene]-2-thioxo-thiazolidin-4-one]	0.012 µM
CC(C)C(C)C(=O)N1CCOc2ccc(C=C3SC(=S)NC3=O)cc21 (stereo not shown) [Example 86, 5-[4-(2,3-Dimethyl-butyryl)-3,4-dihydro-2H-benzo[1,4]oxazin-6-ethylene]-2-thioxo-thiazolidin-4-one]	0.179 µM
CC1CCCCC1CCC(=O)N1CCOc2ccc(C=C3SC(=S)NC3=O)cc21 (stereo not shown) [Example 87]	0.12 µM
COc1ccc(C)cc1C(=O)N1CCOc2ccc(C=C3SC(=S)NC3=O)cc21 [Example 88, 5-[4-(2-Methoxy-5-methyl-benzoyl)-3,4-dihydro-2H-benzo[1,4]oxazin-6-ethylene]-2-thioxo-thiazolidin-4-one]	0.465 µM
Cc1ccc(F)c(C(=O)N2CCOc3ccc(C=C4SC(=S)NC4=O)cc32)c1 [Example 89, 5-[4-(2-Fluoro-5-methyl-benzoyl)-3,4-dihydro-2H-benzo[1,4]oxazin-6-ethylene]-2-thioxo-thiazolidin-4-one]	0.2 µM
CC(C(=O)N1CCOc2ccc(C=C3SC(=S)NC3=O)cc21)C(C)(C)C (stereo not shown) [Example 90, 2-Thioxo-5-[4-(2,3,3-trimethyl-butyryl)-3,4-dihydro-2H-benzo[1,4]oxazin-6-ethylene]-2-thioxo-thiazolidin-4-one]	1.03 µM
CC1CCCCC1C(=O)N1CCOc2ccc(C=C3SC(=S)NC3=O)cc21 (stereo not shown) [Example 91, 5-[4-(2-Methyl-cyclohexanecarbonyl)-3,4-dihydro-2H-benzo[1,4]oxazin-6-ethylene]-2-thioxo-thiazolidin-4-one]	0.09 µM
CC(=O)N1CCOc2ccc(C=C3SC(=S)NC3=O)cc21 [Example 92, 5-(4-Acetyl-3,4-dihydro-2H-1,4-benzoxazin-6-ylmethylene)-2-thioxo-thiazolidin-4-one]	0.033 µM
CCC(=O)N1CCOc2ccc(C=C3SC(=S)NC3=O)cc21 [Example 93, 4-(4-Propionyl-3,4-dihydro-2H-1,4-benzoxazin-6-ylmethylene)-2-thioxo-thiazolidin-4-one]	0.012 µM
CCCC(=O)N1CCOc2ccc(C=C3SC(=S)NC3=O)cc21 [Example 94, 5-(4-Butyryl-3,4-dihydro-2H-1,4-benzoxazin-6-ylmethylene)-2-thioxo-thiazolidin-4-one]	0.01 µM
CCCCCC(=O)N1CCOc2ccc(C=C3SC(=S)NC3=O)cc21 [Example 95, 5-(4-Hexanoyl-3,4-dihydro-2H-1,4-benzoxazin-6-ylmethylene)-2-thioxo-thiazolidin-4-one]	0.008 µM
